# Assay results published in patent US20020156068A1, “Anti-psychosis combination” (priority 2001, published 2002).
# Counter-ions that a name gives are not always drawn.
# System: MK-801-induced hyperactivity
# Experiment: Antagonism of MK801-induced hyperlocomotion (locomotor activity cages)
# Format: in vivo, rat
# Details: 180 min; for MK-801-induced hyperactivity as measured by a decrease in ambulation: male Sprague-Dawley rats, AR116081 10 or 20 mg/kg oral, each alone; for MK-801-induced hyperactivity as measured by a decrease in ambulation / effect of MK801 on fine movements, a measure of stereotypies / effect on rear measures (rearing activity): Haloperidol 0.05 mg/kg s.c., MK-801 0.3 mg/kg s.c.; for effect of MK801 on fine movements, a measure of stereotypies / effect on rear measures (rearing activity): AR116081 20 mg/kg oral, alone or combined
# Method: Antagonism of MK801-Induced Hyperlocomotion: a Model of Potential Antipsychotic (“antipositive”) Activity
# Because part of the symptomatology of schizophrenia may be related to altered glutamate transmission at the NMDA receptor, the reversal of MK-801-induced hyperlocomotor activity in rodents has been used routinely as an animal model for detecting potential antipsychotic activity (Hoffinan, D. C., J. Neural. Transm. 89:1-10, 1992).
# Motor function was assessed using automated locomotor activity cages (Hamilton-Kinder, San Diego) comprised of standard rodent cages surrounded by photocell beams, allowing for automated recording of motor activity. The animals were under no motivational constraints and were free to move around the cages. In this test, male Sprague-Dawley rats (200-325 g body weight) were food deprived overnight prior to testing. On the testing day, they were administered AR116081 orally at a dose of 10 or 20 mg/kg base (substance # 127190 suspended in 1% Tween 80 and 99% distilled water solution, volume injection 10 cc/kg) immediately followed by subcutaneous administration of Haloperidol at a dose of 0.05 mg/kg base (RBI lot # TOW-1990 dissolved in distilled water and pH at 5-6, volume injection 1 cc/kg). The treated rats were placed in the locomotor activity cages 30 min after co-administration of compounds for a 30 min habituation period to the cages and recording of basal locomotor activity. Animals then received (via subcutaneous administration) (+)-MK801 hydrogen maleate at a dose of 0.3 mg/kg salt (RBI/Sigma Lot #108H4705 dissolved in saline, volume injection 1 cc/kg). The rats were immediately placed back into the locomotor activity cages, and activity was measured for 180 min.
SMILES,MK-801-induced hyperactivity as measured by a decrease in ambulation,"effect of MK801 on fine movements, a measure of stereotypies (rats)",effect on rear measures (rearing activity) (rats),"motor parameters recorded: ambulation, fine movement and rearing activity (rats, MK-801 0.3 mg/kg s.c. alone)"
"Cn1ncc(Br)c1-c1cccc(NC(=O)Nc2ccc(Cl)cc2)c1 [AR116081, N-[3-(4-bromo-2-methylpyrazol-3-yl)phenyl][(4-chlorophenyl)amino]carboxamide]",attenuated,attenuated but did not significantly reverse,No effects,–
O=C(CCCN1CCC(O)(c2ccc(Cl)cc2)CC1)c1ccc(F)cc1 [Haloperidol],attenuated,attenuated but did not significantly reverse,No effects,–
"C[C@]12N[C@H](Cc3ccccc31)c1ccccc12 [MK-801, (+)-MK801 hydrogen maleate]",–,–,–,significant increase
